Measured values reported in patent US9439432B2, “Phenylisoxazoline-based compound having herbicidal activity and use thereof” (MOGHU RESEARCH CENTER LTD, priority 2011, dated 2016).

Key:
Assay type in all cases: in vivo
[1] = test system: Alopecurus myosuroides; test: Post-emergence treatment, herbicidal efficacy on blackgrass; conditions: 4 weeks after spraying, scale 0 to 10
Method: (§1) A rectangular plastic pot having a surface area of 300 cm^2 was filled with sandy loam soil and mixed bed soil which were mixed at a ratio of 1:1, and then, barnyardrass (Echinochloa crusgalli), large crabgrass (Digitaria sanguinalis), blackgrass (Alopecurus myosuroides), and annual bluegrass (Poa annua), which are grass weeds, were seeded thereto. In a pot that was prepared as described above, seeds of corn, soybean, cotton, wheat, and rice were seeded. The pots were irrigated, and one day after, chemicals were sprayed thereto. The spraying was performed by using a track sprayer (R&D Sprayer, USA) equipped with a Teejet 8002 (Spraying Systems Co., USA) nozzle, and a spraying amount was adjusted at 300 L/ha. A spraying solution was prepared by dissolving test materials or references in acetone and adding the same amount of 0.2%(v/v) tween 20 aqueous solution thereto. Application rates were 500, 250, 125, and 62.5 g/ha. The pots were placed in a greenhouse in which during day, the temperature was maintained at a temperature of 25 to 30° C., and during night, the temperature was maintained at a temperature of 15 to 25° C., and the pots were periodically irrigated. Four weeks after the spraying the test materials or References, effects and phytotoxicity of the respective weeds and crops were evaluated in a scale of 0 to 10 (0: no effects, 10: complete death), and results thereof are shown in Table 4 below.
(§2) Pots containing crops and weeds were prepared in the same manner as in Example 7, and then, in the second week in which crops and weeds entered into about 3 leaf stage, the test materials and the references were sprayed thereto in the same manner as described above. The rates were 1,000, 500, 250, and 125 g/ha. Four weeks after the spraying of the test materials or the references, herbicidal efficacy and phytotoxicity to the respective weeds and crops were evaluated in a scale of 0 to 10 (0: no effects, 10: complete death).

[2] = test system: Corn; test: Pre-emergence treatment, phytotoxicity to corn; conditions: 500 g/ha, 4 weeks after spraying, scale 0 to 10 (0: no effects, 10: complete death)
Method: as §1

[3] = test system: Corn; test: Post-emergence treatment, phytotoxicity to corn; conditions: post-emergence (about 3 leaf stage), 1,000 g/ha, 4 weeks after spraying, scale 0 to 10 (0: no effects, 10: complete death)
Method: as §1, §2

[4] = test system: Echinochloa crusgalli; test: Pre-emergence treatment, herbicidal efficacy on barnyardgrass; conditions: 4 weeks after spraying
Method: as §1

[5] = test system: Cotton; test: Pre-emergence treatment, phytotoxicity to cotton; conditions: 500 g/ha, 4 weeks after spraying, scale 0 to 10 (0: no effects, 10: complete death)
Method: as §1

[6] = test system: Rice; test: Pre-emergence treatment, phytotoxicity to rice; conditions: 500 g/ha, 4 weeks after spraying, scale 0 to 10 (0: no effects, 10: complete death)
Method: as §1

[7] = test system: Soybean; test: Pre-emergence treatment, phytotoxicity to soybean; conditions: 500 g/ha, 4 weeks after spraying, scale 0 to 10 (0: no effects, 10: complete death)
Method: as §1

[8] = test system: Poa annua; test: Pre-emergence treatment, herbicidal efficacy on annual bluegrass; conditions: 4 weeks after spraying, scale 0 to 10
Method: as §1

[9] = test system: Alopecurus myosuroides; test: Pre-emergence treatment, herbicidal efficacy on blackgrass; conditions: 4 weeks after spraying, scale 0 to 10
Method: as §1

[10] = test system: Echinochloa crusgalli; test: Post-emergence treatment, herbicidal efficacy on barnyardgrass; conditions: 4 weeks after spraying, scale 0 to 10
Method: as §1, §2

[11] = test system: Digitaria sanguinalis; test: Pre-emergence treatment, herbicidal efficacy on large crabgrass; conditions: 4 weeks after spraying, scale 0 to 10
Method: as §1

[12] = test system: Wheat; test: Pre-emergence treatment, phytotoxicity to wheat; conditions: 500 g/ha, 4 weeks after spraying, scale 0 to 10 (0: no effects, 10: complete death)
Method: as §1

[13] = test system: Cotton; test: Post-emergence treatment, phytotoxicity to cotton; conditions: post-emergence (about 3 leaf stage), 1,000 g/ha, 4 weeks after spraying, scale 0 to 10 (0: no effects, 10: complete death)
Method: as §1, §2

[14] = test system: Wheat; test: Post-emergence treatment, phytotoxicity to wheat; conditions: post-emergence (about 3 leaf stage), 1,000 g/ha, 4 weeks after spraying, scale 0 to 10 (0: no effects, 10: complete death)
Method: as §1, §2

[15] = test system: Soybean; test: Post-emergence treatment, phytotoxicity to soybean; conditions: post-emergence (about 3 leaf stage), 1,000 g/ha, 4 weeks after spraying, scale 0 to 10 (0: no effects, 10: complete death)
Method: as §1, §2

[16] = test system: Poa annua; test: Post-emergence treatment, herbicidal efficacy on annual bluegrass; conditions: 4 weeks after spraying, scale 0 to 10
Method: as §1, §2

[17] = test system: Rice; test: Post-emergence treatment, phytotoxicity to rice; conditions: post-emergence (about 3 leaf stage), 1,000 g/ha, 4 weeks after spraying, scale 0 to 10 (0: no effects, 10: complete death)
Method: as §1, §2

[18] = test system: Digitaria sanguinalis; test: Post-emergence treatment, herbicidal efficacy on large crabgrass; conditions: 4 weeks after spraying, scale 0 to 10
Method: as §1, §2

With Cc1ccccc1C1=NOC(C)(COCc2ccccc2)C1 (stereo not drawn) [Reference C] the “Herbicidal efficacy, Alopecurus myosuroides” value ([1]; post-emergence, 125 g/ha) was 0, the “Herbicidal efficacy, Alopecurus myosuroides” value ([1]; post-emergence, 250 g/ha) was 0 and the “Herbicidal efficacy, Alopecurus myosuroides” value ([1]; post-emergence, 500 g/ha) was 3. For the same molecule, the “Herbicidal efficacy, Alopecurus myosuroides” value ([1]; post-emergence, 1,000 g/ha) was 5, the “Phytotoxicity, Corn” value [2] was 1 and the “Phytotoxicity, Corn” value [3] was 2. The “Herbicidal efficacy, Echinochloa crusgalli” value ([4]; 62.5 g/ha, scale 0 to 10) was 2, the “Herbicidal efficacy, Echinochloa crusgalli” value ([4]; 125 g/ha, scale 0 to 10) was 5 and the “Herbicidal efficacy, Echinochloa crusgalli” value ([4]; 250 g/ha, scale 0 to 10) was 8. The “Herbicidal efficacy, Echinochloa crusgalli” value ([4]; 500 g/ha, scale 0 to 10 (0: no effects, 10: complete death)) was 10, the “Phytotoxicity, Cotton” value [5] was 1 and the “Phytotoxicity, Rice” value [6] was 0. The “Phytotoxicity, Soybean” value [7] was 1, the “Herbicidal efficacy, Poa annua” value ([8]; 62.5 g/ha) was 2 and the “Herbicidal efficacy, Poa annua” value ([8]; 125 g/ha) was 5. The “Herbicidal efficacy, Poa annua” value ([8]; 250 g/ha) was 9, the “Herbicidal efficacy, Poa annua” value ([8]; 500 g/ha) was 9 and the “Herbicidal efficacy, Alopecurus myosuroides” value ([9]; 62.5 g/ha) was 0. For the same molecule, the “Herbicidal efficacy, Alopecurus myosuroides” value ([9]; 125 g/ha) was 2, the “Herbicidal efficacy, Alopecurus myosuroides” value ([9]; 250 g/ha) was 4 and the “Herbicidal efficacy, Alopecurus myosuroides” value ([9]; 500 g/ha) was 6. For the same molecule, the “Herbicidal efficacy, Echinochloa crusgalli” value ([10]; post-emergence, 125 g/ha) was 1, the “Herbicidal efficacy, Echinochloa crusgalli” value ([10]; post-emergence, 250 g/ha) was 3 and the “Herbicidal efficacy, Echinochloa crusgalli” value ([10]; post-emergence, 500 g/ha) was 4. The “Herbicidal efficacy, Echinochloa crusgalli” value ([10]; post-emergence, 1,000 g/ha) was 7, the “Herbicidal efficacy, Digitaria sanguinalis” value ([11]; 62.5 g/ha) was 0 and the “Herbicidal efficacy, Digitaria sanguinalis” value ([11]; 125 g/ha) was 6. The “Herbicidal efficacy, Digitaria sanguinalis” value ([11]; 250 g/ha) was 9, the “Herbicidal efficacy, Digitaria sanguinalis” value ([11]; 500 g/ha) was 10 and the “Phytotoxicity, Wheat” value [12] was 0. The “Phytotoxicity, Cotton” value [13] was 0, the “Phytotoxicity, Wheat” value [14] was 0 and the “Phytotoxicity, Soybean” value [15] was 0. The “Herbicidal efficacy, Poa annua” value ([16]; post-emergence, 125 g/ha) was 0, the “Herbicidal efficacy, Poa annua” value ([16]; post-emergence, 250 g/ha) was 2 and the “Herbicidal efficacy, Poa annua” value ([16]; post-emergence, 500 g/ha) was 3. The “Herbicidal efficacy, Poa annua” value ([16]; post-emergence, 1,000 g/ha) was 4, the “Phytotoxicity, Rice” value [17] was 0 and the “Herbicidal efficacy, Digitaria sanguinalis” value ([18]; post-emergence, 125 g/ha) was 1. For the same molecule, the “Herbicidal efficacy, Digitaria sanguinalis” value ([18]; post-emergence, 250 g/ha) was 3, the “Herbicidal efficacy, Digitaria sanguinalis” value ([18]; post-emergence, 500 g/ha) was 4 and the “Herbicidal efficacy, Digitaria sanguinalis” value ([18]; post-emergence, 1,000 g/ha) was 7.
